Ends that are not written are not given here.
Test system: B. cereus

## ALLKVLFSWFRKHNSRRKNLPAKN [Seq ID no2]
  MIC: 256 µg/mL

Reference: patent US20230287061A1, “NEW ANTIMICROBIAL PEPTIDES” (priority 2020, published 2023)
